Reference: US7491794B2, “Macrocyclic compounds as inhibitors of viral replication” (Intermune, Inc., priority 2003, dated 2009)

What was measured:
[1] = tested on: HCV sub-genomic replicon, GS4.3; test: Quantitation by ELISA of NPTII in the HCV sub-genomic replicon, GS4.3, Section B; assay type: cell-based; conditions: Hepatitis C virus; GS4.3 cells, 72 h incubation; read-out: Replicon EC50
Summary of the method: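 GS4.3 cells (HuH-7 carrying HCV 1377/NS3-3′ replicon) were treated 72 h at 37 °C with inhibitors in 3-fold dilutions, 1% DMSO, no G418. Lysate NPTII was measured by ELISA (TMB, 450 nm). Signal as % of DMSO control; EC50 from 4-parameter fit.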

[2] = target: T1, NS3-NS4A protease (Hepatitis C virus genotype 1a, UniProt P27958); test: NS3-NS4A protease assay (NS3 inhibition assay, RETS1 substrate), Section B; assay type: biochemical; conditions: read-out: NS3-NS4A IC50
T1 construct: Recombinant E. coli or Baculovirus full-length NS3 was diluted to 3.33 μM with assay buffer; made in house; host or cells: E. coli or baculovirus (BV) system
Summary of the method: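 Full-length NS3 (E. coli or baculovirus) precomplexed with excess NS4A-2 peptide, run at 2 nM (E. coli) or 3 nM (BV) NS3; compounds pre-incubated 10 min at room temperature before RETS1 substrate. Fluorescence (ex 335/em 495 nm) read kinetically 30 min; IC50 from four-parameter fit, converted to Ki via Ki=IC50/(1+[S]/Km).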

T1 sequence (P27958 1027-1657): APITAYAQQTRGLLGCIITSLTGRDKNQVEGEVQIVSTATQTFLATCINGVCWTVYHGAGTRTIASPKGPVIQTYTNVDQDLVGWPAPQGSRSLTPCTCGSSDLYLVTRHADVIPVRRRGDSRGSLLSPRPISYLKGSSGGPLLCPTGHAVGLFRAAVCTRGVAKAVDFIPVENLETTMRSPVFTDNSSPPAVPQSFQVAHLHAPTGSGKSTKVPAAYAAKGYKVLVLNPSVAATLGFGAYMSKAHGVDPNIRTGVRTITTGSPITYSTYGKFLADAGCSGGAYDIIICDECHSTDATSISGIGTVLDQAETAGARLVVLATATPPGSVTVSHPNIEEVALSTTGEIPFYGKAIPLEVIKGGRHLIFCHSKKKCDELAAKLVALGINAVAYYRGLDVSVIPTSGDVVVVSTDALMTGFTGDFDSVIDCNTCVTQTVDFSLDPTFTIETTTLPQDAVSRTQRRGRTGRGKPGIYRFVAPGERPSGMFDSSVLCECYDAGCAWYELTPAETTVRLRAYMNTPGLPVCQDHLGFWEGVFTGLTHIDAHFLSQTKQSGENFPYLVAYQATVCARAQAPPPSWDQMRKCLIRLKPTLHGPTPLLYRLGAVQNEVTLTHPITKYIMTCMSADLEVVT

| SMILES | EC50 [1] | IC50 [2] |
| --- | --- | --- |
| CC(C)(C)OC(=O)N[C@H]1CCCCC/C=C\[C@@H]2C[C@@]2(C(=O)NS(=O)(=O)C2CC2)NC(=O)[C@@H]2C[C@@H](OC(=O)N3Cc4ccc(OCCOC(=O)N5CCOCC5)cc4C3)CN2C1=O [AR00345032, (1S,4R,6S,14S,18R)-5-[2-(Morpholine-4-carbonyloxy)-ethoxy]-1,3-dihydro-isoindole-2-carboxylic acid 14-tert-butoxycarbonylamino-4-cyclopropanesulfonylaminocarbonyl-2,15-dioxo-3,16-diaza-tricyclo[14.3.0.0^4,6]nonadec-7-en-18-yl ester] | < 100 nM | < 100 nM |
| CC(C)(C)OC(=O)N[C@H]1CCCCC/C=C\[C@@H]2C[C@@]2(C(=O)NS(=O)(=O)C2CC2)NC(=O)[C@@H]2C[C@@H](OC(=O)N3Cc4ccc(OCCCN5CCOCC5)cc4C3)CN2C1=O [AR00345075, (1S,4R,6S,14S,18R)-5-(3-Morpholin-4-yl-propoxy)-1,3-dihydro-isoindole-2-carboxylic acid 14-tert-butoxycarbonylamino-4-cyclopropanesulfonylaminocarbonyl-2,15-dioxo-3,16-diaza-tricyclo[14.3.0.0^4,6]nonadec-7-en-18-yl ester] | < 1000 nM | < 100 nM |
| CC(C)(C)OC(=O)N[C@H]1CCCCC/C=C\[C@@H]2C[C@@]2(C(=O)NS(=O)(=O)C2CC2)NC(=O)[C@@H]2C[C@@H](OC(=O)N3Cc4ccc(OCCN5CCOCC5)cc4C3)CN2C1=O [AR00345090, (1S,4R,6S,14S,18R)-5-(2-Morpholin-4-yl-ethoxy)-1,3-dihydro-isoindole-2-carboxylic acid 14-tert-butoxycarbonylamino-4-cyclopropanesulfonylaminocarbonyl-2,15-dioxo-3,16-diaza-tricyclo[14.3.0.0^4,6]nonadec-7-en-18-yl ester] | < 100 nM | < 100 nM |
| CC(C)NCCOc1ccc2c(c1)CN(C(=O)O[C@@H]1C[C@H]3C(=O)N[C@]4(C(=O)NS(=O)(=O)C5CC5)C[C@H]4/C=C\CCCCC[C@H](NC(=O)OC(C)(C)C)C(=O)N3C1)C2 [AR00345094, (1S,4R,6S,14S,18R)-5-(2-Isopropylamino-ethoxy)-1,3-dihydro-isoindole-2-carboxylic acid 14-tert-butoxycarbonylamino-4-cyclopropanesulfonylaminocarbonyl-2,15-dioxo-3,16-diaza-tricyclo[14.3.0.0^4,6]nonadec-7-en-18-yl ester] | < 100 nM | < 100 nM |
| CN(C)CCOc1ccc2c(c1)CN(C(=O)O[C@@H]1C[C@H]3C(=O)N[C@]4(C(=O)NS(=O)(=O)C5CC5)C[C@H]4/C=C\CCCCC[C@H](NC(=O)OC(C)(C)C)C(=O)N3C1)C2 [AR00345095, (1S,4R,6S,14S,18R)-5-(2-Dimethylamino-ethoxy)-1,3-dihydro-isoindole-2-carboxylic acid 14-tert-butoxycarbonylamino-4-cyclopropanesulfonylaminocarbonyl-2,15-dioxo-3,16-diaza-tricyclo[14.3.0.0^4,6]nonadec-7-en-18-yl ester] | < 100 nM | < 100 nM |
| CC(C)(C)OC(=O)N[C@H]1CCCCC/C=C\[C@@H]2C[C@@]2(C(=O)NS(=O)(=O)C2CC2)NC(=O)[C@@H]2C[C@@H](OC(=O)N3Cc4ccc(OCCn5ccnc5)cc4C3)CN2C1=O [AR00345096, (1S,4R,6S,14S,18R)-5-(2-Imidazol-1-yl-ethoxy)-1,3-dihydro-isoindole-2-carboxylic acid 14-tert-butoxycarbonylamino-4-cyclopropanesulfonylaminocarbonyl-2,15-dioxo-3,16-diaza-tricyclo[14.3.0.0^4,6]nonadec-7-en-18-yl ester] | < 100 nM | < 100 nM |
| Cn1c(C(=O)O)ccc1S(=O)(=O)NC(=O)[C@@]12C[C@H]1/C=C\CCCCC[C@H](NC(=O)OC(C)(C)C)C(=O)N1C[C@H](OC(=O)N3Cc4ccccc4C3)C[C@H]1C(=O)N2 [AR00364266, (1S,4R,6S,14S,18R)-1,3-Dihydro-isoindole-2-carboxylic acid 14-tert-butoxycarbonylamino-4-(5-carboxy-1-methyl-1H-pyrrole-2-sulfonylaminocarbonyl)-2,15-dioxo-3,16-diaza-tricyclo[14.3.0.0^4,6]nonadec-7-en-18-yl ester] | < 1000 nM | < 100 nM |
| CC(C)(C)OC(=O)N[C@H]1CCCCC/C=C\[C@@H]2C[C@@]2(C(=O)NS(=O)(=O)C2CC2)NC(=O)[C@@H]2C[C@@H](OC(=O)N3Cc4ccc(OCCn5cccn5)cc4C3)CN2C1=O [AR00364924, (1S,4R,6S,14S,18R)-5-(2-Pyrazol-1-yl-ethoxy)-1,3-dihydro-isoindole-2-carboxylic acid 14-tert-butoxycarbonylamino-4-cyclopropanesulfonylaminocarbonyl-2,15-dioxo-3,16-diaza-tricyclo[14.3.0.0^4,6]nonadec-7-en-18-yl ester] | < 100 nM | < 100 nM |
| CC(C)(C)OC(=O)N[C@H]1CCCCC/C=C\[C@@H]2C[C@@]2(C(=O)NS(=O)(=O)C2CC2)NC(=O)[C@@H]2C[C@@H](OC(=O)N3Cc4ccc(O)cc4C3)CN2C1=O [AR00364936, (1S,4R,6S,14S,18R)-5-Hydroxy-1,3-dihydro-isoindole-2-carboxylic acid 14-tert-butoxycarbonylamino-4-cyclopropanesulfonylaminocarbonyl-2,15-dioxo-3,16-diaza-tricyclo[14.3.0.0^4,6]nonadec-7-en-18-yl ester] | < 1000 nM | < 100 nM |
| Cc1nc(-c2ccc3c(c2)CN(C(=O)O[C@@H]2C[C@H]4C(=O)N[C@]5(C(=O)NS(=O)(=O)C6CC6)C[C@H]5/C=C\CCCCC[C@H](NC(=O)OC(C)(C)C)C(=O)N4C2)C3)cs1 [AR00364989, (1S,4R,6S,14S,18R)-5-(2-Methyl-thiazol-4-yl)-1,3-dihydro-isoindole-2-carboxylic acid 14-tert-butoxycarbonylamino-4-cyclopropanesulfonylaminocarbonyl-2,15-dioxo-3,16-diaza-tricyclo[14.3.0.0^4,6]nonadec-7-en-18-yl ester] | < 100 nM | < 100 nM |
| CC(C)Nc1nc(-c2ccc3c(c2)CN(C(=O)O[C@@H]2C[C@H]4C(=O)N[C@]5(C(=O)NS(=O)(=O)C6CC6)C[C@H]5/C=C\CCCCC[C@H](NC(=O)OC(C)(C)C)C(=O)N4C2)C3)cs1 [AR00365019, (1S,4R,6S,14S,18R)-5-(2-Isopropylamino-thiazol-4-yl)-1,3-dihydro-isoindole-2-carboxylic acid 14-tert-butoxycarbonylamino-4-cyclopropanesulfonylaminocarbonyl-2,15-dioxo-3,16-diaza-tricyclo[14.3.0.0^4,6]nonadec-7-en-18-yl ester] | < 100 nM | < 100 nM |
| CC(C)(C)OC(=O)N[C@H]1CCCCC/C=C\[C@@H]2C[C@@]2(C(=O)NS(=O)(=O)C2CC2)NC(=O)[C@@H]2C[C@@H](OC(=O)N3Cc4ccc(C#N)cc4C3)CN2C1=O [AR00365082, (1S,4R,6S,14S,18R)-5-Cyano-1,3-dihydro-isoindole-2-carboxylic acid 14-tert-butoxycarbonylamino-4-cyclopropanesulfonylaminocarbonyl-2,15-dioxo-3,16-diaza-tricyclo[14.3.0.0^4,6]nonadec-7-en-18-yl ester] | < 1000 nM | < 100 nM |
